Source: patent US9498480B2 (Bayer Intellectual Property GmbH, priority 2012, dated 2016)

Tested on: recombinant guanylate cyclase reporter cell line
Assay: Effect on a recombinant guanylate cyclase reporter cell line
Assay type: cell-based
Conditions: representative values, read-out: MEC (minimum effective concentration)
Protocol: B-2. Effect on a Recombinant Guanylate Cyclase Reporter Cell Line
The cellular activity of the compounds according to the invention is determined using a recombinant guanylate cyclase reporter cell line, as described in F. Wunder et al., Anal. Biochem. 339, 104-112 (2005).

Structure (SMILES): CCN(CC)c1n[nH]c2nc(-c3nn(CCC(F)(F)C(F)(F)F)c4ncc(F)cc34)nc(N)c12 [Example 9]
- minimal effective concentration: 0.03 µM

Structure (SMILES): Nc1nc(-c2nn(Cc3ncccc3F)c3ncc(F)cc23)nc2ncccc12 [Example 3, 2-{5-Fluoro-1-[(3-fluoropyridin-2-yl)methyl]-1H-pyrazolo[3,4-b]pyridin-3-yl}pyrido[2,3-d]pyrimidine-4-amine]
- minimal effective concentration: 10 µM

Structure (SMILES): COc1n[nH]c2nc(-c3nn(Cc4ncccc4F)c4ncc(F)cc34)nc(N)c12 [Example 4, 6-{5-Fluoro-1-[(3-fluoropyridin-2-yl)methyl]-1H-pyrazolo[3,4-b]pyridin-3-yl}-3-methoxy-1H-pyrazolo[3,4-d]pyrimidine-4-amine]
- minimal effective concentration: 0.3 µM

Structure (SMILES): Cc1n[nH]c2nc(-c3nc(Cc4ccccc4F)n4ncccc34)nc(N)c12 [Example 7, 6-[7-(2-Fluorobenzyl)imidazo[1,5-b]pyridazin-5-yl]-3-methyl-1H-pyrazolo[3,4-d]pyrimidine-4-amine]
- minimal effective concentration: 0.01 µM

Structure (SMILES): Cc1n[nH]c2nc(-c3nn(Cc4ncccc4F)c4ncc(F)cc34)nc(N)c12 [Example 1, 6-{5-Fluoro-1-[(3-fluoropyridin-2-yl)methyl]-1H-pyrazolo[3,4-b]pyridin-3-yl}-3-methyl-1H-pyrazolo[3,4-d]pyrimidine-4-amine]
- minimal effective concentration: 0.3 µM

Structure (SMILES): Cc1n[nH]c2nc(-c3nn(CCC(F)(F)C(F)(F)F)c4ncc(F)cc34)nc(N)c12 [Example 8, 6-[5-Fluoro-1-(3,3,4,4,4-pentafluorobutyl)-1H-pyrazolo[3,4-b]pyridin-3-yl]-3-methyl-1H-pyrazolo[3,4-d]pyrimidine-4-amine]
- minimal effective concentration: 0.1 µM

Structure (SMILES): O=c1[nH]c2nc(-c3nn(Cc4ccccc4F)c4ncc(F)cc34)nc(NCC3CC3)c2n1CC(F)(F)F [Example 5, 6-[(Cyclopropylmethyl)amino]-2-[5-fluoro-1-(2-fluorobenzyl)-1H-pyrazolo[3,4-b]pyridin-3-yl]-7-(2,2,2-trifluoroethyl)-7,9-dihydro-8H-purin-8-one]
- minimal effective concentration: 0.3 µM

Structure (SMILES): CCN(CC)c1n[nH]c2nc(-c3nn(Cc4ncccc4F)c4ncc(F)cc34)nc(N)c12 [Example 2, N^3,N^3-Diethyl-6-{5-fluoro-1-[(3-fluoropyridin-2-yl)methyl]-1H-pyrazolo[3,4-b]pyridin-3-yl}-1H-pyrazolo[3,4-d]pyrimidine-3,4-diamine]
- minimal effective concentration: 0.1 µM

Structure (SMILES): Nc1nc(-c2nn(CCC(F)(F)C(F)(F)F)c3ncc(F)cc23)nc2ncccc12 [Example 10, 2-[5-Fluoro-1-(3,3,4,4,4-pentafluorobutyl)-1H-pyrazolo[3,4-b]pyridin-3-yl]pyrido[2,3-d]pyrimidine-4-amine]
- minimal effective concentration: 0.3 µM
